From PMC8436214 (Journal of Medicinal Chemistry, 2021)
Entries after “also recorded” stand apart in the source; their conditions may differ.

How the values were obtained:
Human recombinant PNMT = molecular target: T1, Human recombinant PNMT (Homo sapiens, UniProt P11086); test: PNMT selectivity assay; format: biochemical
T1 sequence (P11086 1-282): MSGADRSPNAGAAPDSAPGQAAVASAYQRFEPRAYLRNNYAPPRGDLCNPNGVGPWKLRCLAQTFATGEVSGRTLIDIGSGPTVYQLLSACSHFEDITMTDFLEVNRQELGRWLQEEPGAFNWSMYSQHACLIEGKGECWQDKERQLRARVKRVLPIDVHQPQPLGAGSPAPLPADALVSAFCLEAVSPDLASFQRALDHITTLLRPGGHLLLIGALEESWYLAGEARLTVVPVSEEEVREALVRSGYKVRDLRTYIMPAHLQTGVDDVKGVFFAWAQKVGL

PRMT4/CARM1 = molecular target: T2, PRMT4/CARM1 (Homo sapiens, UniProt Q86X55); test: PRMT4/CARM1 methyltransferase inhibition assay; format: biochemical; settings: 3.7, 11.1, 33.3, and 100 μM
T2 sequence (Q86X55 1-608): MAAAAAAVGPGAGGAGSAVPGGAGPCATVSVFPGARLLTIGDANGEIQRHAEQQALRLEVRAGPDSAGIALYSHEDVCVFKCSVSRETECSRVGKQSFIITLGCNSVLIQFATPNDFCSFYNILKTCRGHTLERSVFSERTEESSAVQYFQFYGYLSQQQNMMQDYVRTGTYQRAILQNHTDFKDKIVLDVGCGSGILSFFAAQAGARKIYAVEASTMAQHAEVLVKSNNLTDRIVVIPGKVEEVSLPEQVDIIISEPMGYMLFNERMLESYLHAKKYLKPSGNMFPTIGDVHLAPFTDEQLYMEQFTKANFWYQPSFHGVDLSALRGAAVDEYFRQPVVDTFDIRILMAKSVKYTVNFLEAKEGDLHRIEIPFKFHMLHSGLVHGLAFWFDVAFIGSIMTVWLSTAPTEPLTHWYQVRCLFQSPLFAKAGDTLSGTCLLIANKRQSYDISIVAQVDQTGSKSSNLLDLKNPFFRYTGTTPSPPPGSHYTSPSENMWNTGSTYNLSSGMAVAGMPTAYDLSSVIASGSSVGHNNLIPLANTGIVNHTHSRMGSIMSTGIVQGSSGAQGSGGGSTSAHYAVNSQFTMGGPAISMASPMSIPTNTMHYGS

SMYD2 = SMYD2 (Homo sapiens, UniProt Q9NRG4); test: Methyltransferase selectivity assay; format: biochemical
SMYD2, sequence (Q9NRG4 whole entry, species assumed): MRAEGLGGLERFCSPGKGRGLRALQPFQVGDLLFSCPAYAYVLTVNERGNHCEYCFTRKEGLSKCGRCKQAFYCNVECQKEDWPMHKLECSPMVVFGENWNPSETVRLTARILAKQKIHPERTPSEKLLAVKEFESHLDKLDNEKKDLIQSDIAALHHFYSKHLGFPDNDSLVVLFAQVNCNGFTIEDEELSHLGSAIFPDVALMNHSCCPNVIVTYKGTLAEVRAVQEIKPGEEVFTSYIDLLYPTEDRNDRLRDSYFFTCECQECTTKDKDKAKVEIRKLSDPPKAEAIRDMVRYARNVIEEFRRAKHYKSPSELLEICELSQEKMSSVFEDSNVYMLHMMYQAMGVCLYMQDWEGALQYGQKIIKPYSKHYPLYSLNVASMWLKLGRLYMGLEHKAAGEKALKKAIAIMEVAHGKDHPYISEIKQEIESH

PRMT5 = PRMT5 (Homo sapiens, UniProt O14744); test: Methyltransferase selectivity assay; format: biochemical
PRMT5, sequence (O14744 whole entry, species assumed): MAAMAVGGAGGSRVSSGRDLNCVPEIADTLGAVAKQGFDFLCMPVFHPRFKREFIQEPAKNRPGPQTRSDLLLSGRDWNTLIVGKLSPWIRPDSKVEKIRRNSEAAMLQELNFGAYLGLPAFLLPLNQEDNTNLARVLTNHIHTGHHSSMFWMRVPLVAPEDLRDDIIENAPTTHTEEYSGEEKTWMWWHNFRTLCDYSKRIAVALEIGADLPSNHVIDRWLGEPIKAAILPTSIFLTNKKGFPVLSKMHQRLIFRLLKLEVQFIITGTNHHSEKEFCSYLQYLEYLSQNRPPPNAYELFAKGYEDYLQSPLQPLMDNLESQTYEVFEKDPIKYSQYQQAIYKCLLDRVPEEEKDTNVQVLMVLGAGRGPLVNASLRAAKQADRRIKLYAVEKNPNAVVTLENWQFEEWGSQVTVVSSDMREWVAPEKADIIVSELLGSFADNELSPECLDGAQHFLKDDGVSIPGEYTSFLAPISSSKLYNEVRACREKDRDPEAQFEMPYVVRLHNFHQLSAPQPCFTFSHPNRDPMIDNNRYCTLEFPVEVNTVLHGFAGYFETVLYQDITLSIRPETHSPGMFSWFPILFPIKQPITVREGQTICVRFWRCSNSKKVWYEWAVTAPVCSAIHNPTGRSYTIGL
PRMT5, sequence (Q9BQA1 whole entry partner, species assumed): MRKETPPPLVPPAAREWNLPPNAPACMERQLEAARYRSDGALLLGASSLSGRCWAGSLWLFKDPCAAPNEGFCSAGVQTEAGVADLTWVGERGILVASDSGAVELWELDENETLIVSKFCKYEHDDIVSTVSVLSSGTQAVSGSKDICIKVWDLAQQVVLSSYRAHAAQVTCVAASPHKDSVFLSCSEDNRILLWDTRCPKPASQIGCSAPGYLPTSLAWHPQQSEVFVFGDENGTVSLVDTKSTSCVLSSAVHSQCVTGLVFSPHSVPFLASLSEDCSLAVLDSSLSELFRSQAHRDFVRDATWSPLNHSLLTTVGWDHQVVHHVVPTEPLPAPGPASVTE

DOT1L = DOT1L (Homo sapiens, UniProt Q8TEK3); test: Methyltransferase selectivity assay; format: biochemical
DOT1L, sequence (Q8TEK3 whole entry, species assumed): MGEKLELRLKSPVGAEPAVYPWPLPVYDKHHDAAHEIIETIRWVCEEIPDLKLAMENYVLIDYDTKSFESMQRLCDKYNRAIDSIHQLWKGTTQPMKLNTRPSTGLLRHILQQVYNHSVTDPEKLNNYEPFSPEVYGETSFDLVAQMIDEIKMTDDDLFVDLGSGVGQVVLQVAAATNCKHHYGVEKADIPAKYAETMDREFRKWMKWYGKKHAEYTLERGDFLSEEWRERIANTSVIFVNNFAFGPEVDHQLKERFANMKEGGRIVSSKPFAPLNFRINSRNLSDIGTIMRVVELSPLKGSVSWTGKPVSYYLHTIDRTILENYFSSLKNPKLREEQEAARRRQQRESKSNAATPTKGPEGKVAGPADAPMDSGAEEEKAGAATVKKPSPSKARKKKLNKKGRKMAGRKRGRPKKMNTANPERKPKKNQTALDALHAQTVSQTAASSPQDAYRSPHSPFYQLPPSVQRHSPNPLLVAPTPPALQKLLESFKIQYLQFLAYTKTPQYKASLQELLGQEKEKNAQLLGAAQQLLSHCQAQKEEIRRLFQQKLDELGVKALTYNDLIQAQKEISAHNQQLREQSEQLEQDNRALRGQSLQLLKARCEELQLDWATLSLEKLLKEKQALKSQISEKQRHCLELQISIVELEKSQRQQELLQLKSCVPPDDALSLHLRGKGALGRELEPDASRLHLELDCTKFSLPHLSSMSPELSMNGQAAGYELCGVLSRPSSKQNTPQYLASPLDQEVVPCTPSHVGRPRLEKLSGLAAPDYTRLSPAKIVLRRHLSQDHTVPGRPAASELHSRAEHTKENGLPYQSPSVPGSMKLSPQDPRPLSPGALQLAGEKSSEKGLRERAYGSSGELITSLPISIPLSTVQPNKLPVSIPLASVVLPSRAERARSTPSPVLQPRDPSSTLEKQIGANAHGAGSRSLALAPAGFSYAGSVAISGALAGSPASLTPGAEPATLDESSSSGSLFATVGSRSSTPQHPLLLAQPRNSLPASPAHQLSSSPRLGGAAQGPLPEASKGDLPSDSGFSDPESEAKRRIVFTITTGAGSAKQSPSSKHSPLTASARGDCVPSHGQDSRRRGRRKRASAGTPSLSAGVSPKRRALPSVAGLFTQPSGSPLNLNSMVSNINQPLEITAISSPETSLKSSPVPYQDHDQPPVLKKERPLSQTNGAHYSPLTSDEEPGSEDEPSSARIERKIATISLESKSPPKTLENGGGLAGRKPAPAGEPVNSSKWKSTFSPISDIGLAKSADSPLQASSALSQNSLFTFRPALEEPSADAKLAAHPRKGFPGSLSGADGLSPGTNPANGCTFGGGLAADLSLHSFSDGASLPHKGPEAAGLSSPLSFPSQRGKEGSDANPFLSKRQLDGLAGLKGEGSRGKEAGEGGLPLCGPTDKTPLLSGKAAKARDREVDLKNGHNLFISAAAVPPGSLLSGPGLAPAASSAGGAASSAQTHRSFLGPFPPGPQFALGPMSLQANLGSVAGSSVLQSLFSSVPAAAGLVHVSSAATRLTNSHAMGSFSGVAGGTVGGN

[1] = system: HSC-2 human oral cancer cell line; test: MTT cell proliferation/viability assay; format: cell-based
[2] = system: A549 human lung cancer line; test: MTT cell proliferation/viability assay; format: cell-based
[3] = system: T24 human bladder cancer cell line; test: MTT cell proliferation/viability assay; format: cell-based
[4] = Parallel artificial membrane permeability assay; format: in vitro ADME; settings: PAMPA
[5] = lower concentrations tested (from 1 μM)

**Q.** Which “PNMT inhibition at the concentrations tested” value (Human recombinant PNMT; 1 and 10 μM) does the source give for `N#Cc1ccc(/C=C/CN(CC[C@H](N)C(=O)O)C[C@H]2O[C@@H](n3cnc4c(N)ncnc43)[C@H](O)[C@@H]2O)cc1` [Compound 17u, (S)-2-Amino-4-((((2R,3S,4R,5R)-5-(6-amino-9H-purin-9-yl)-3,4-dihydroxytetrahydrofuran-2-yl)methyl)((E)-3-(4-cyanophenyl)allyl)amino)butanoic Acid] here?
**A.** The value was “less than 50%”.

**Q.** What about the “inhibitory activity against PNMT lower than against NNMT” value (Human recombinant PNMT; selectivity NNMT over PNMT) of the same compound?
**A.** The value was “more than 3000 fold”.

**Q.** And the “PRMT4/CARM1 inhibition at the concentrations tested” value (PRMT4/CARM1)?
**A.** The value was “no inhibition was observed”.

**Q.** What about the activity at 1 µM (SMYD2; read-out: SMYD2 Average Activity (%) 1µM) of the same compound?
**A.** The activity at 1 µM was 39%.

**Q.** And the activity at 10 µM (SMYD2; read-out: SMYD2 Average Activity (%) 10µM)?
**A.** The activity at 10 µM was 19%.

**Q.** What about the “higher potency toward NNMT (than SMYD-2)” value (SMYD2; selectivity NNMT over SMYD-2) of the same compound?
**A.** Its value is over 100 fold.

**Q.** What about the “PRMT5 activity of the compound (in words)” value (PRMT5; 1 μM) of the same compound?
**A.** Its value is “no appreciable activity”.

**Q.** What about the inhibition at 10 µM (PRMT5; read-out: PRMT5 inhibition) of the same compound?
**A.** Its inhibition at 10 µM is over 50%.

**Q.** And the “DOT1L activity of the compound (in words)” value (DOT1L; 1 μM)?
**A.** The value was “no appreciable activity”.

**Q.** And the inhibition at 10 µM (DOT1L; read-out: DOT1L inhibition)?
**A.** The inhibition at 10 µM was over 50%.

**Q.** And the “effect on cell viability, HSC-2” value ([1]; 100 μM, MTT, 24, 48 and 72 h)?
**A.** Its value is “clear inhibition of the cell viability; also recorded: significant decrease in cell viability”.

**Q.** What about the “effect on cell viability, HSC-2” value [1, 5] of the same compound?
**A.** Its value is “absent”.

**Q.** And the “effect on cell viability, A549” value ([2]; 100 μM, MTT, 24, 48 and 72 h)?
**A.** The value was “clear inhibition of the cell viability; also recorded: significant decrease in cell viability”.

**Q.** What about the “effect on cell viability, A549” value [2, 5] of the same compound?
**A.** The value was “absent”.

**Q.** And the “effect on cell viability, T24” value ([3]; 100 μM, MTT, 24, 48 and 72 h)?
**A.** The value was “clear inhibition of the cell viability; also recorded: significant decrease in cell viability”.

**Q.** And the “effect on cell viability, T24” value [3, 5]?
**A.** The value was “absent”.

**Q.** What about the “cell permeability (in words)” value [4] of the same compound?
**A.** Its value is “very poor cell permeability; also recorded: poor cell permeability”.
